Test results: article PMC4387075 (Neuropharmacology, 2015)
Entries after “also recorded” stand apart in the source; their conditions may differ. Where two headings read alike, the source gives them in different places.

What was measured:
[1] = system: cerebellar granule cells; experiment: Cell viability; conditions: for IC50: read-out: IC50 for inhibition of glutamate neuroprotection, 1 mM glutamate in K5; for effect of agonist on viability of granule cells in K5: K5, 16 hours, MTT; for maximum effect on granule cell viability: percent of viability in K25 cultures, K5 media, 16 hours; for effect of antagonist on NMDA-induced increase in granule cell viability: 1 mM NMDA in K5, MK801 1 μM, JNJ16259685 300 μM
[2] = target: mGlu1 receptors (Rattus norvegicus, UniProt P23385); experiment: PI hydrolysis; format: cell-based; conditions: for PI hydrolysis Emax, % glu: efficacy as percentage of glutamate efficacy, mean +/- 95% confidence interval; for agonist bias between PI hydrolysis and neuroprotection: from Emax values of both responses (Figure 7); for effect of antagonist on PI hydrolysis stimulated by quisqualate, DHPG and ACPD: agonists 100 μM, JNJ16259685 300 μM, CPCCOEt 200 μM, MPEP 10 μM
[3] = system: mGlu1 receptor-expressing CHO cells; conditions: ref Emery et al., 2012, cited from earlier work; for ERK phosphorylation or protection: transfected CHO cells; for protection from serum starvation: mGlu1 receptor-expressing CHO cells
[4] = system: mGlu1 receptor; conditions: mGlu1 receptor-expressing CHO cells; ref Emery et al., 2012; cited from earlier work
[5] = read-out: PI hydrolysis EC50, mean (95% confidence interval)

mGlu1 receptors, sequence (P23385 19-1199): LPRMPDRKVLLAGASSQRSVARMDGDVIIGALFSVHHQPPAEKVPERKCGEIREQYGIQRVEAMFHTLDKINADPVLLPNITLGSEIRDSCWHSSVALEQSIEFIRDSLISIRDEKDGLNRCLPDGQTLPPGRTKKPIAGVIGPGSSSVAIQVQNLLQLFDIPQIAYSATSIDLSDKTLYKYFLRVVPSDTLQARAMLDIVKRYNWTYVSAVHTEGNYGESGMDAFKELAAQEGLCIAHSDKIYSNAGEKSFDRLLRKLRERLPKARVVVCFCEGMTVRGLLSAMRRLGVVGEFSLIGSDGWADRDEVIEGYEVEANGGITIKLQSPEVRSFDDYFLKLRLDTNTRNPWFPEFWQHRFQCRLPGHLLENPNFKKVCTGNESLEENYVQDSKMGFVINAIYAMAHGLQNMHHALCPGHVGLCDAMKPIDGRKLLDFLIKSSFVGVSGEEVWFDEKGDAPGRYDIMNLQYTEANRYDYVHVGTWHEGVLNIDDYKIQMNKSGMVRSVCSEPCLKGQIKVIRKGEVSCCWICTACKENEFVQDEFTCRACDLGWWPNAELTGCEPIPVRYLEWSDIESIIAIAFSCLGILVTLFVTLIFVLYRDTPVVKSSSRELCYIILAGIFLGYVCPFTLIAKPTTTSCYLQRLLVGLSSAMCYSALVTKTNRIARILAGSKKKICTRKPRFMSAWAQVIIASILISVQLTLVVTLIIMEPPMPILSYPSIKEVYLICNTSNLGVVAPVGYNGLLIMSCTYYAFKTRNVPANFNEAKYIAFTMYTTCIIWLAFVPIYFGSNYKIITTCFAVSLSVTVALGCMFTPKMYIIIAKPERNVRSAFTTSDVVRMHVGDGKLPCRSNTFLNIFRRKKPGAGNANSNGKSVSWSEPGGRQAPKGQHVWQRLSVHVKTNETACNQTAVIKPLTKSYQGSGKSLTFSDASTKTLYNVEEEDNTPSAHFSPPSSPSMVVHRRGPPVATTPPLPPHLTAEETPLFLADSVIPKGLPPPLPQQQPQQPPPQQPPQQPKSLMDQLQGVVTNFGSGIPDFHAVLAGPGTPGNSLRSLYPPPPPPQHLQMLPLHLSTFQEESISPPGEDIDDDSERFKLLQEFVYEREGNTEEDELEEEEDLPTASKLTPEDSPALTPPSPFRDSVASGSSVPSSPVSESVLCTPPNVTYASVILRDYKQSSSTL

7-(Hydroxyimino)cyclopropa[b]chromen-1a-carboxylate ethyl ester [CPCCOEt]
IC50 [1]: 123 µM

N[C@@]1(C(=O)O)CC[C@@H](C(=O)O)C1 [ACPD, (1S,3R)-1-aminocyclopentane-1,3-dicarboxylic acid]
effect of agonist on viability of granule cells in K5 [1]: not significantly increased
maximum effect on granule cell viability [1]: 49 ± 5%
agonist type for PI hydrolysis compared to glutamate [2]: partial agonists
PI hydrolysis at 100 μM agonist compared to Locke's media only [2]: significant increase
PI hydrolysis Emax, % glu [2]: 66 ± 1.4 % glu
agonist bias between PI hydrolysis and neuroprotection [2]: completely biased towards PI hydrolysis

N[C@@H](CC(=O)O)C(=O)O [Aspartate, aspartate]
effect of agonist on viability of granule cells in K5 [1]: prevented
EC50 [2]: 19 µM
PI hydrolysis Emax, % glu [2]: 103 ± 7.8 % glu
agonist bias between PI hydrolysis and neuroprotection [2]: balanced agonists

N[C@@H](CS(=O)(=O)O)C(=O)O [Cysteic acid]
effect of agonist on viability of granule cells in K5 [1]: prevented
PI hydrolysis Emax, % glu [2]: 87 ± 4.2 % glu
EC50 [2, 5]: 22 µM

N[C@@H](CS(=O)O)C(=O)O [Cysteine sulfinic acid]
effect of agonist on viability of granule cells in K5 [1]: prevented
PI hydrolysis Emax, % glu [2]: 82 ± 10 % glu
EC50 [2, 5]: 29 µM

NC(C(=O)O)c1cc(O)cc(O)c1 (stereo not drawn) [DHPG, 3,5-dihydroxyphenylglycine]
effect of agonist on viability of granule cells in K5 [1]: not significantly increased
EC50 [2]: 23 µM
agonist type for PI hydrolysis compared to glutamate [2]: partial agonists
PI hydrolysis at 100 μM agonist compared to Locke's media only [2]: significant increase
PI hydrolysis Emax, % glu [2]: 69 ± 3.7 % glu
agonist bias between PI hydrolysis and neuroprotection [2]: completely biased towards PI hydrolysis
ERK phosphorylation or protection [3]: do not stimulate

N[C@@H](CCC(=O)O)C(=O)O [Glutamate, glutamate]
effect of agonist on viability of granule cells in K5 [1]: prevented
maximum effect on granule cell viability [1]: 65%

N[C@@H](CCS(=O)(=O)O)C(=O)O [Homocysteic acid]
effect of agonist on viability of granule cells in K5 [1]: prevented
PI hydrolysis Emax, % glu [2]: 84 ± 7.4 % glu
EC50 [2, 5]: 29 µM

COC1CCC(C(=O)c2ccc3nc4c(cc3c2)CCCO4)CC1 (stereo not drawn) [JNJ16259685]
effect of antagonist on NMDA-induced increase in granule cell viability [1]: blocked
IC50 [1]: 19.8 µM
effect of antagonist on PI hydrolysis stimulated by quisqualate, DHPG and ACPD [2]: significantly decreased

C[C@]12N[C@H](Cc3ccccc31)c1ccccc12 [MK801]
effect of antagonist on NMDA-induced increase in granule cell viability [1]: significantly inhibited

Cc1cccc(C#Cc2ccccc2)n1 [MPEP]
effect of antagonist on PI hydrolysis stimulated by quisqualate, DHPG and ACPD [2]: no effect

CN[C@H](CC(=O)O)C(=O)O [NMDA, N-methyl-D-aspartate]
maximum effect on granule cell viability [1]: 73%

N[C@@H](Cn1oc(=O)[nH]c1=O)C(=O)O [Quisqualate, quisqualate]
effect of agonist on viability of granule cells in K5 [1]: not significantly increased; also recorded: no efficacy
agonist type for PI hydrolysis compared to glutamate [2]: full agonist
PI hydrolysis at 100 μM agonist compared to Locke's media only [2]: significant increase
PI hydrolysis Emax, % glu [2]: 109 ± 7.8 % glu
agonist bias between PI hydrolysis and neuroprotection [2]: completely biased towards PI hydrolysis
ERK phosphorylation or protection [3]: do not stimulate

O=C(O)CCCC(=O)O [glutaric acid]
efficacy for PI hydrolysis [4]: no efficacy
protection from serum starvation [3]: able to protect

O=C(O)CCC(=O)O [succinic acid]
efficacy for PI hydrolysis [4]: no efficacy
protection from serum starvation [3]: able to protect
